Molecular target: IRE1α (Homo sapiens (Human), UniProt O75460, D688N)
Assay: IRE1α TR-FRET competition binding assay (IRE1α HTRF)
Conditions: TR-FRET competition binding to kinase domain of IRE1α
Experimental: IRE1α TR-FRET Competition Binding Assay. The affinity of compound binding to the kinase domain of IRE1α was determined using a time-resolved fluorescence resonance energy transfer (TR-FRET) competition assay.
The purified protein (final concentration 0.25 nM) was pre-incubated with anti-His Europium labeled antibody (Life Technologies PV5596, final concentration 2 nM) for one hour at 4° C. in TR-FRET Assay Buffer (50 mM HEPES, pH 7.5, 10 mM MgCl2, 0.083 mM Brij 35, 1 mM DTT, and 0.1% bovine gamma globulin) prior to addition to test compounds. An Alexa fluor 647-labeled probe based on an ATP competitive inhibitor was added to a final concentration of 2 nM. Reactions were carried out for one hour at room temperature in a final volume of 20 μL in 384 well white ProxiPlates (Perkin Elmer 6008289). Binding of the probe to the IRE1α protein was detected in an Envision instrument (PerkinElmer) equipped with a TRF laser option and a LANCE/Delfia Dual/Bias D400/D630 mirror (Ex 347 nm, 1st Em 665 nm, 2nd Em 615 nm).

Sequence of IRE1α (O75460 547-977 D688N): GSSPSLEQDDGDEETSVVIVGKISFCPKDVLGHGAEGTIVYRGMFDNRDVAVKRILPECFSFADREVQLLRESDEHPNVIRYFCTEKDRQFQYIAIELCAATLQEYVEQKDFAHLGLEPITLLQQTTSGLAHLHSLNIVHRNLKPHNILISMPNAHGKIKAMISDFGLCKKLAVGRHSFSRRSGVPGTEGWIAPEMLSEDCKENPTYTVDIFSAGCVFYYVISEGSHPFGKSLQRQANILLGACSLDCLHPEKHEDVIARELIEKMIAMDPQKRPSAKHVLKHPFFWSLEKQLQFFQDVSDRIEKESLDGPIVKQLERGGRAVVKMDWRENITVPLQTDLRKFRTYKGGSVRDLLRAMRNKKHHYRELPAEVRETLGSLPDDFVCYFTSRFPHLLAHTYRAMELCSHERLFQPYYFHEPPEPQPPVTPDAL

| IC50 [nM] | Compound |
| --- | --- |
| 0.23 | CC(C)n1c(=O)c(-c2cc(F)c(NS(=O)(=O)CCC(F)(F)F)c(F)c2)nc2cnc(N[C@@H]3CC[C@@H](N(C)C)[C@H](F)C3)nc21 (stereo in doubt) [Compound 168B, N-(4-(2-((4-(Dimethylamino)-3-fluorocyclohexyl)amino)-8-isopropyl-7-oxo-7,8-dihydropteridin-6-yl)-2,6-difluorophenyl)-3,3,3-trifluoropropane-1-sulfonamide] |
| 0.22 | CC(C)n1c(=O)c(-c2ccc(NS(=O)(=O)CCC(F)(F)F)c(F)c2)nc2cnc(N[C@H]3CC[C@H](N(C)C)[C@@H](F)C3)nc21 (stereo in doubt) [Compound 179A, N-(4-(2-((4-(Dimethylamino)-3-fluorocyclohexyl)amino)-8-isopropyl-7-oxo-7,8-dihydropteridin-6-yl)-2-fluorophenyl)-3,3,3-trifluoropropane-1-sulfonamide] |
| 0.15 | CC(C)n1c(=O)c(-c2ccc(NS(=O)(=O)CCC(F)(F)F)c(F)c2)nc2cnc(N[C@@H]3CC[C@@H](N(C)C)[C@H](F)C3)nc21 (stereo in doubt) [Compound 179B, N-(4-(2-((4-(Dimethylamino)-3-fluorocyclohexyl)amino)-8-isopropyl-7-oxo-7,8-dihydropteridin-6-yl)-2-fluorophenyl)-3,3,3-trifluoropropane-1-sulfonamide] |
| 0.16 | CC(C)n1c(=O)c(-c2ccc(NS(=O)(=O)Cc3ccc(F)cc3)c(F)c2)nc2cnc(N[C@@H]3CC[C@@H](N(C)C)[C@H](F)C3)nc21 (stereo in doubt) [Compound 181A, N-(4-(2-((4-(Dimethylamino)-3-fluorocyclohexyl)amino)-8-isopropyl-7-oxo-7,8-dihydropteridin-6-yl)-2-fluorophenyl)-1-(4-fluorophenyl)methanesulfonamide] |
| 0.15 | CC(C)n1c(=O)c(-c2ccc(NS(=O)(=O)Cc3ccc(F)cc3)c(F)c2)nc2cnc(N[C@H]3CC[C@H](N(C)C)[C@@H](F)C3)nc21 (stereo in doubt) [Compound 181B, N-(4-(2-((4-(Dimethylamino)-3-fluorocyclohexyl)amino)-8-isopropyl-7-oxo-7,8-dihydropteridin-6-yl)-2-fluorophenyl)-1-(4-fluorophenyl)methanesulfonamide] |
| 0.11 | CC(C)n1c(=O)c(-c2ccc(NS(=O)(=O)Cc3ccccc3)c(F)c2)nc2cnc(N[C@H]3CC[C@H](N(C)C)[C@@H](F)C3)nc21 (stereo in doubt) [Compound 192A, N-(4-(2-((4-(Dimethylamino)-3-fluorocyclohexyl)amino)-8-isopropyl-7-oxo-7,8-dihydropteridin-6-yl)-2-fluorophenyl)-1-phenylmethanesulfonamide] |
| 0.09 | CC(C)n1c(=O)c(-c2ccc(NS(=O)(=O)Cc3ccccc3)c(F)c2)nc2cnc(N[C@@H]3CC[C@@H](N(C)C)[C@H](F)C3)nc21 (stereo in doubt) [Compound 192B, N-(4-(2-((4-(Dimethylamino)-3-fluorocyclohexyl)amino)-8-isopropyl-7-oxo-7,8-dihydropteridin-6-yl)-2-fluorophenyl)-1-phenylmethanesulfonamide] |
| 0.2 | CC(C)n1c(=O)c(-c2ccc(NS(=O)(=O)CC3CC(F)(F)C3)c(F)c2)nc2cnc(N[C@H]3CC[C@H](N(C)C)[C@@H](F)C3)nc21 (stereo in doubt) [Compound 193A, 1-(3,3-Difluorocyclobutyl)-N-(4-(2-((4-(dimethylamino)-3-fluorocyclohexyl)amino)-8-isopropyl-7-oxo-7,8-dihydropteridin-6-yl)-2-fluorophenyl)methanesulfonamide] |
| 0.17 | CC(C)n1c(=O)c(-c2ccc(NS(=O)(=O)CC3CC(F)(F)C3)c(F)c2)nc2cnc(N[C@@H]3CC[C@@H](N(C)C)[C@H](F)C3)nc21 (stereo in doubt) [Compound 193B, 1-(3,3-Difluorocyclobutyl)-N-(4-(2-((4-(dimethylamino)-3-fluorocyclohexyl)amino)-8-isopropyl-7-oxo-7,8-dihydropteridin-6-yl)-2-fluorophenyl)methanesulfonamide] |
| 2.8 | Cn1c(=O)c(-c2ccc(NS(=O)(=O)Cc3ccccc3)c(F)c2F)cc2cnc(N[C@H]3CCCNC3)nc21 [Compound 1, (S)—N-(2,3-Difluoro-4-(8-methyl-7-oxo-2-(piperidin-3-ylamino)-7,8-dihydropyrido[2,3-d]pyrimidin-6-yl)phenyl)-1-phenylmethanesulfonamide] |
| 2.1 | Cn1c(=O)c(-c2ccc(NS(=O)(=O)Cc3ccccc3)c(F)c2F)cc2cnc(N[C@@H]3CNC[C@@H](F)C3)nc21 [Compound 2, N-(2,3-Difluoro-4-(2-(((3S,5S)-5-fluoropiperidin-3-yl)amino)-8-methyl-7-oxo-7,8-dihydropyrido[2,3-d]pyrimidin-6-yl)phenyl)-1-phenylmethanesulfonamide] |
| 0.68 | CCn1c(=O)c(-c2ccc(NS(=O)(=O)Cc3ccccc3)c(F)c2F)cc2cnc(N[C@H]3CCCNC3)nc21 [Compound 3, (S)—N-(4-(8-Ethyl-7-oxo-2-(piperidin-3-ylamino)-7,8-dihydropyrido[2,3-d]pyrimidin-6-yl)-2,3-difluorophenyl)-1-phenylmethanesulfonamide] |
| 5 | Cn1c(=O)c(-c2cccc3c(NS(=O)(=O)CCC(F)(F)F)c(F)ccc23)cc2cnc(N[C@H]3CCCNC3)nc21 [Compound 4, (S)-3,3,3-Trifluoro-N-(2-fluoro-5-(8-methyl-7-oxo-2-(piperidin-3-ylamino)-7,8-dihydropyrido[2,3-d]pyrimidin-6-yl)naphthalen-1-yl)propane-1-sulfonamide] |
| 0.28 | Cn1c(=O)c(-c2cccc3c(NS(=O)(=O)Cc4ccccc4)c(F)ccc23)cc2cnc(N[C@H]3CCCNC3)nc21 [Compound 5, (S)—N-(2-Fluoro-5-(8-methyl-7-oxo-2-(piperidin-3-ylamino)-7,8-dihydropyrido[2,3-d]pyrimidin-6-yl)naphthalen-1-yl)-1-phenylmethanesulfonamide] |
| 0.89 | Cn1c(=O)c(-c2cc(F)c(NS(=O)(=O)Cc3ccccc3)c3ccccc23)cc2cnc(N[C@H]3CCCNC3)nc21 [Compound 6, (S)—N-(2-Fluoro-4-(8-methyl-7-oxo-2-(piperidin-3-ylamino)-7,8-dihydropyrido[2,3-d]pyrimidin-6-yl)naphthalen-1-yl)-1-phenylmethanesulfonamide] |
| 5.9 | Cn1c(=O)c(-c2cc(F)c(NS(=O)(=O)CCC(F)(F)F)c3ccccc23)cc2cnc(N[C@H]3CCCNC3)nc21 [Compound 7, (S)-3,3,3-Trifluoro-N-(2-fluoro-4-(8-methyl-7-oxo-2-(piperidin-3-ylamino)-7,8-dihydropyrido[2,3-d]pyrimidin-6-yl)naphthalen-1-yl)propane-1-sulfonamide] |
| 36 | CCCS(=O)(=O)Nc1c(F)ccc2c(-c3cc4cnc(N[C@H]5CCCNC5)nc4n(C)c3=O)cccc12 [Compound 8, (S)—N-(2-Fluoro-5-(8-methyl-7-oxo-2-(piperidin-3-ylamino)-7,8-dihydropyrido[2,3-d]pyrimidin-6-yl)naphthalen-1-yl)propane-1-sulfonamide] |
| 0.28 | CC(C)n1c(=O)c(-c2ccc(NS(=O)(=O)Cc3ccccc3)c(F)c2F)cc2cnc(N[C@@H]3CNC[C@@H](F)C3)nc21 [Compound 9, N-(2,3-Difluoro-4-(2-(((3S,5S)-5-fluoropiperidin-3-yl)amino)-8-isopropyl-7-oxo-7,8-dihydropyrido[2,3-d]pyrimidin-6-yl)phenyl)-1-phenylmethanesulfonamide] |
| 1.1 | O=c1c(-c2ccc(NS(=O)(=O)Cc3ccccc3)c(F)c2F)cc2cnc(N[C@@H]3CNC[C@@H](F)C3)nc2n1C1CC1 [Compound 10, N-(4-(8-cyclopropyl-2-(((3S,5S)-5-fluoropiperidin-3-yl)amino)-7-oxo-7,8-dihydropyrido[2,3-d]pyrimidin-6-yl)-2,3-difluorophenyl)-1-phenylmethanesulfonamide] |
| 1.1 | O=c1c(-c2ccc(NS(=O)(=O)Cc3ccccc3)c(F)c2F)cc2cnc(N[C@@H]3CNC[C@@H](F)C3)nc2n1CC(F)F [Compound 11, N-(4-(8-(2,2-Difluoroethyl)-2-(((3S,5S)-5-fluoropiperidin-3-yl)amino)-7-oxo-7,8-dihydropyrido[2,3-d]pyrimidin-6-yl)-2,3-difluorophenyl)-1-phenylmethanesulfonamide] |
| 0.57 | CCn1c(=O)c(-c2ccc(NS(=O)(=O)Cc3ccccc3)c(F)c2F)cc2cnc(N[C@@H]3CNC[C@@H](F)C3)nc21 [Compound 12, N-(4-(8-Ethyl-2-(((3S,5S)-5-fluoropiperidin-3-yl)amino)-7-oxo-7,8-dihydropyrido[2,3-d]pyrimidin-6-yl)-2,3-difluorophenyl)-1-phenylmethanesulfonamide] |
| 8.3 | CCCS(=O)(=O)Nc1ccc(-c2cc3cnc(N[C@@H]4CNC[C@@H](F)C4)nc3n(CC)c2=O)c(F)c1F [Compound 13, N-(4-(8-Ethyl-2-(((3S,5S)-5-fluoropiperidin-3-yl)amino)-7-oxo-7,8-dihydropyrido[2,3-d]pyrimidin-6-yl)-2,3-difluorophenyl)propane-1-sulfonamide] |
| 5 | CCn1c(=O)c(-c2ccc(NS(=O)(=O)CCC(F)(F)F)c(F)c2F)cc2cnc(N[C@@H]3CNC[C@@H](F)C3)nc21 [Compound 14, N-(4-(8-Ethyl-2-(((3S,5S)-5-fluoropiperidin-3-yl)amino)-7-oxo-7,8-dihydropyrido[2,3-d]pyrimidin-6-yl)-2,3-difluorophenyl)-3,3,3-trifluoropropane-1-sulfonamide] |

Reference: patent US12344603B2 (Genentech, Inc., priority 2020, dated 2025)
